Data as given in patent US20100203587A1, “USE OF DNA GYRASE INHIBITORS FOR IN VITRO POLYPEPTIDE SYNTHESIS REACTIONS” (priority 2009, published 2010).
Like-named read-outs stand apart in the source and are kept apart here.

What was measured:
[1] = system: bacterial growth in lysates used for cell-free reactions; test: Inhibition of bacterial growth from lysate in LB medium (Example 5); assay type: cell-based; settings: 20 hours; for OD595: 30° C.; for Concentration that inhibits growth: Example 5, 30° C.
Protocol: 20 μl of lysate was inoculated into 2 ml LB medium, which contained 0, 0.1, 0.25, 0.5, and 1 μg/mL of Norfloxacin or 0, 1, 2.5, 5, and 10 μg/ml Coumermycin A1 and was incubated at 30° C. by shaking at 300 rpm. OD595 was assayed after incubation for 20 hours.

[2] = system: GM-CSF yields in cell-free reactions; test: Cell-free protein synthesis reaction, GM-CSF yields; assay type: biochemical, E. coli; settings: for Concentration with very mild impact on GM-CSF yields in cell-free reactions: FIG. 3, 60 μL scale; for Concentration without impact in cell-free reactions: GM-CSF yields
Protocol: In vitro protein synthesis reactions occurred in lysates generated from a population of cells. The lysate must be generated such that it would be useful for expressing proteins. E. coli A19ΔendAΔtonAΔspeAΔtnaAΔsdaAΔsdaBΔgshAΔgorTrxBHAmet^+ was used for as the extract source cell strain.
E. coli cells were grown in a 10 L Braun Biostat C fermentor. The cells were grown on 2YPTG media in batch mode with pH control at pH 7.0. The cells were harvested at 3.2 OD (595) at growth rate of >0.7 per hour. Cells were separated from the media by centrifugation at 6000 g, 4° C. for 25 min and the resulting cell paste was stored at −80° C. The cell paste was thawed at 4° C. in S30 buffer (10 mM TRIS-acetate pH 8.2 (Sigma-Aldrich Corp. St. Louis, Mo.), 14 mM magnesium acetate (Sigma-Aldrich), and 60 mM potassium acetate (Sigma-Aldrich)) at a ratio of 1 mL of buffer per 1 g of wet cell paste. Resuspended cells were passed through a high pressure homogenizer (Emulsiflex C-50, Avestin Inc., Ottawa, Ontario, Canada). The pressure drop was set at 20000 psi. The homogenized mixture was then centrifuged at 30000 g, 4° C. for 30 minutes. The procedure was repeated twice and the supernatant was retained both times. The mixture was incubated at 37° C. for 80 min in a rotary shaker. The lysate was then centrifuged at 20000 g, 4° C. for 30 minutes and supernatant was retained.
The extract was pretreated with 50 μM iodoacetamide at 21° C. for 30 min. The plasmid contained the structural gene encoding the target protein and was constructed as explained above. Amino Acids were in an equimolar mixture of all 20 native amino acids.
The 250 μL of reaction mixture is spread on the bottom of a petri dish (BD Falcon) and incubated at 30° C. in a sealed humidified incubator for 5 hours. 300 mL reaction is performed in QPlus bioreactor, 4 L in 10 L Braun Biostat C fermentor and 100 L in 200 L fermentor (Sartorius).

bacterial strains = settings: cited from earlier work; for minimum inhibitory concentration (According to literature): Klein et al.
[3] = system: bacterial growth from lysate; test: Inhibition of bacterial growth from lysate in LB medium (Example 6); assay type: cell-based; settings: 16 hours; for OD595 (cell density): 37° C.
Clostridium difficile = Clostridium difficile (Shungu et al.); cited from earlier work
[4] = system: hepatic nonprotein sulfhydryl groups (mainly reduced glutathione); settings: in vivo and in vitro studies using rats (Lake et al.; Fernyhough et al.); cited from earlier work

Molecule Coumermycin A1 has an OD595 ([1]; 1 μg/ml) of 1.7, an OD595 ([1]; 2.5 μg/ml) of 1.2 and an OD595 ([1]; 5 μg/ml) of 1.1. For the same molecule, the OD595 ([1]; 10 μg/ml) was 0.2, the “Concentration that inhibits growth” value [1] was 10 µg/mL and the “Concentration with very mild impact on GM-CSF yields in cell-free reactions” value [2] was 10 µg/mL. For the same molecule, the “Concentration without impact in cell-free reactions” value [2] was 10 µg/mL and the “Concentration that inhibits growth (According to literature)” value (bacterial strains; some strains tested (Hooper et al.)) was 2 to 8 µg/mL.
In the case of `O=C(O)c1cn(C2CC2)c2cc(N3CCNCC3)c(F)cc2c1=O` [Ciprofloxacin], the “Concentration that inhibits growth” value ([3]; Example 6, 37° C.) is listed as 1 µg/mL, the “minimum inhibitory concentration (According to literature)” value (bacterial strains) is listed as 1 (1) μg/ml and the “minimum inhibitory concentration (According to literature)” value (bacterial strains; listed as ciprofloxacin) is listed as “about 1 μg/ml”.
Molecule `CCn1cc(C(=O)O)c(=O)c2cc(F)c(N3CCNCC3)cc21` [Norfloxacin] has an OD595 ([1]; 0.1 μg/ml) of 1.8, an OD595 ([1]; 0.25 μg/ml) of 1.3 and an OD595 ([1]; 0.5 μg/ml) of 1.2. For the same molecule, the OD595 ([1]; 1 μg/ml) was 0.06, the “Concentration that inhibits growth” value [1] was 1 µg/mL and the “Concentration with very mild impact on GM-CSF yields in cell-free reactions” value [2] was “up to 2.5 μg/ml”. The “Concentration without impact in cell-free reactions” value [2] was 2.5 µg/mL, the “Concentration that inhibits growth (According to literature)” value (bacterial strains; most gastrointestinal strains tested (Shungu et al.)) was 0.008 to 1 µg/mL and the “inhibitory concentration (literature)” value (Clostridium difficile) was 1 to 128 µg/mL.
For `CO[C@@H]1[C@@H](OC(N)=O)[C@@H](O)[C@H](Oc2ccc3c(O)c(NC(=O)c4ccc(O)c(CC=C(C)C)c4)c(=O)oc3c2C)OC1(C)C` [Novobiocin], the “OD595 (cell density)” value ([3]; 10 μg/ml) was 0.003, the “OD595 (cell density)” value ([3]; 25 μg/ml) was 0.17 and the “OD595 (cell density)” value ([3]; 50 μg/ml) was 0.08. The “OD595 (cell density)” value ([3]; 100 μg/ml) was 0.1, the “OD595 (cell density)” value ([3]; 200 μg/ml) was 0.13 and the “Concentration that negatively impacts GM-CSF yields in cell-free reactions” value ([2]; FIG. 5) was at least 10 µg/mL. The “Concentration that inhibits growth (According to literature)” value (bacterial strains; different bacterial strains (Smith and Davis)) was 100 to 300 µg/mL and the “Effect on hepatic nonprotein sulfhydryl groups (mainly reduced glutathione)” value [4] was “depletion of hepatic nonprotein sulfhydryl groups”.
